The test system of the assay is CD2F1 mice, L1210 leukemia ip, survival T/C. In words: NCI In Vivo Anticancer Drug Screen. Data for tumor model L1210 Leukemia (intraperitoneal) in CD2F1 (CDF1) mice. The note with it: endpoint: mean survival time, higher = longer survival. The method, boiled down: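 Activity against a transplanted murine tumor was judged by comparing the compound group with a vehicle group. The outcome in the treated animals was divided by that in the controls.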

The mark [1] stands for this setting: dose: 100.0 mg/kg/injection, schedule: Q01DX001 (ip), vehicle: saline with Tween-80.
The mark [2] stands for this setting: dose: 200.0 mg/kg/injection, schedule: Q01DX001 (ip), vehicle: saline with Tween-80.
Where [3] appears, read: dose: 400.0 mg/kg/injection, schedule: Q01DX001 (ip), vehicle: saline with Tween-80.
[4] abbreviates: dose: 50.0 mg/kg/injection, schedule: Q01DX009 (ip), vehicle: saline.
Where [5] appears, read: dose: 100.0 mg/kg/injection, schedule: Q01DX009 (ip), vehicle: saline.
Setting [6] is: dose: 200.0 mg/kg/injection, schedule: Q01DX009 (ip), vehicle: saline.
Where [7] appears, read: dose: 100.0 mg/kg/injection, schedule: Q04DX002 (ip), vehicle: saline with Tween-80.
Where [8] appears, read: dose: 200.0 mg/kg/injection, schedule: Q04DX002 (ip), vehicle: saline with Tween-80.

Several values for one entry are separate records, joined by “and”; a condition that tells them apart may be missing. Equal entries are not always repeated. Inconclusive results and toxic doses are left out.

For the compound `CCCN1OC2CC/C=C\CCC2C1c1ccccc1` (stereo not drawn), the T/C is, setting by setting: (dose: 100.0 mg/kg/injection, schedule: Q01DX009 (ip), vehicle: Klucel (hydroxypropylcellulose) (HPC)) 100 % of control; (dose: 100.0 mg/kg/injection, schedule: Q04DX003 (ip), vehicle: other) 101 % of control; (dose: 200.0 mg/kg/injection, schedule: Q01DX009 (ip), vehicle: Klucel (hydroxypropylcellulose) (HPC)) 100 % of control; (dose: 200.0 mg/kg/injection, schedule: Q04DX003 (ip), vehicle: other) 107 % of control; (dose: 400.0 mg/kg/injection, schedule: Q01DX009 (ip), vehicle: Klucel (hydroxypropylcellulose) (HPC)) 88 % of control; (dose: 400.0 mg/kg/injection, schedule: Q04DX003 (ip), vehicle: other) 106 % of control.

`CCOC1(OCC)C2C=CC1C(C#N)(C#N)C2(C#N)C#N`: the T/C is 103 % of control (dose: 75.0 mg/kg/injection, schedule: Q01DX001 (ip), vehicle: saline) and 104 % of control (dose: 150.0 mg/kg/injection, schedule: Q01DX001 (ip), vehicle: saline).

In the case of `COCCNP(=S)(OC)OC`, the T/C by setting is: under setting [1], 100 % of control; under setting [2], 101 % of control; under setting [3], 106 % of control.

With `C=C(C)C1CCC2=CCCC(C)C2(C)C1` (stereo not drawn), the T/C under setting [4] was 98 % of control, the T/C under setting [5] was 104 % of control and the T/C under setting [6] is 90 % of control.

Consider `S=C1NC=CC(S)N1` (stereo not drawn), for which the T/C is 103 % of control under setting [7]; 98 % of control under setting [8]; 98 % of control (dose: 400.0 mg/kg/injection, schedule: Q04DX002 (ip), vehicle: saline with Tween-80).

For `COc1cc(-c2ccncc2)nc(OC)n1`, the T/C runs as follows: under setting [7], 96 % of control; under setting [8], 88 % of control.

With `CCOC(=O)C(Cl)C(=O)OCC`, the T/C is, setting by setting: under setting [1], 108 % of control and 109 % of control; under setting [2], 104 % of control and 105 % of control; under setting [3], 120 % of control and 111 % of control.

Take `O=C(OCc1ccccc1)C1CCCN1C(=O)C(CSC(c1ccccc1)(c1ccccc1)c1ccccc1)NC(c1ccccc1)(c1ccccc1)c1ccccc1` (stereo not drawn): the T/C is, setting by setting: under setting [4], 97 % of control; under setting [5], 97 % of control; under setting [6], 95 % of control; (dose: 400.0 mg/kg/injection, schedule: Q01DX009 (ip), vehicle: saline) 95 % of control.

On to `COc1cccc2c1C(=O)c1c(O)c3c(c(O)c1C2=O)C[C@@](O)(C(=O)COC(=O)Cc1ccccc1)C[C@@H]3OC1CC(N)C(O)C(C)O1` (stereo partly drawn), for which the T/C by setting is: (dose: 0.5 mg/kg/injection, schedule: Q01DX009 (ip), vehicle: saline with Tween-80) 123 % of control; (dose: 1.32 mg/kg/injection, schedule: Q01DX009 (ip), vehicle: saline) 118 % of control; (dose: 2.0 mg/kg/injection, schedule: Q01DX009 (ip), vehicle: saline) 114 % of control; (dose: 3.0 mg/kg/injection, schedule: Q01DX009 (ip), vehicle: saline) 117 % of control; (dose: 8.0 mg/kg/injection, schedule: Q01DX009 (ip), vehicle: saline with Tween-80) 96 % of control; (dose: 10.0 mg/kg/injection, schedule: Q04DX003 (ip), vehicle: saline with Tween-80) 158 % of control. Besides, the T/C is 107 % of control (dose: 20.0 mg/kg/injection, schedule: Q01DX001 (ip), vehicle: saline with Tween-80) and 102 % of control (dose: 20.0 mg/kg/injection, schedule: Q04DX003 (ip), vehicle: saline with Tween-80).

As for `CC(C)C(NC(=O)c1cccnc1)C(=O)O` (stereo not drawn), the T/C was 100 % of control (dose: 50.0 mg/kg/injection, schedule: Q04DX002 (ip), vehicle: saline with Tween-80); 108 % of control under setting [1]; 100 % of control under setting [7]; 108 % of control under setting [2]; 104 % of control under setting [8]; 97 % of control under setting [3].

Consider `C[S+](C)c1ccccc1`, for which the T/C reads like this: (dose: 12.5 mg/kg/injection, schedule: Q04DX002 (ip), vehicle: saline) 100 % of control; (dose: 25.0 mg/kg/injection, schedule: Q04DX002 (ip), vehicle: saline) 96 % of control; (dose: 50.0 mg/kg/injection, schedule: Q04DX002 (ip), vehicle: saline) 100 % of control.
